Measurements as given in ChEMBL document CHEMBL3994655, “Methylsulfonyl benzothiazoles (MSBT) derivatives: Search for new potential antimicrobial and anticancer agents” (2017).
Values after ≈ are worked out from the molar mass of the structure shown.

Tests used:
Staphylococcus aureus [1] = experiment: Antibacterial activity against methicillin-resistant Staphylococcus aureus 3710 after 24 to 48 hrs by macro-broth dilution method; type: functional
Staphylococcus aureus [2] = experiment: Antibacterial activity against Staphylococcus aureus 209P assessed as zone of inhibition at 1 mg/ml by agar well diffusion method; type: functional; conditions: read-out: DIZ
Staphylococcus aureus [3] = experiment: Antibacterial activity against Staphylococcus aureus 209P after 24 to 48 hrs by macro-broth dilution method; type: functional
Nakaseomyces glabratus [4] = experiment: Antifungal activity against Candida glabrata H05 after 24 to 48 hrs by macro-broth dilution method; type: functional
Candida albicans [5] = experiment: Antifungal activity against Candida albicans A01 assessed as zone of inhibition at 1 mg/ml by agar well diffusion method; type: functional; conditions: read-out: DIZ
HeLa [6] = experiment: Cytotoxicity against human HeLa cells assessed as cell growth at 10^-6 M after 48 hrs by SRB assay relative to control; type: functional; conditions: read-out: Activity
Staphylococcus aureus [7] = experiment: Antibacterial activity against methicillin-resistant Staphylococcus aureus ATCC 33591 after 24 to 48 hrs by macro-broth dilution method; type: functional
Nakaseomyces glabratus [8] = experiment: Antifungal activity against Candida glabrata H04 after 24 to 48 hrs by macro-broth dilution method; type: functional
HeLa [9] = experiment: Cytotoxicity against human HeLa cells assessed as cell growth at 10^-7 M after 48 hrs by SRB assay relative to control; type: functional; conditions: read-out: Activity
Staphylococcus aureus [10] = experiment: Antibacterial activity against Staphylococcus aureus 209P assessed as zone of inhibition at 5 mg/ml by agar well diffusion method; type: functional; conditions: read-out: DIZ
Escherichia coli [11] = experiment: Antibacterial activity against Escherichia coli ATCC 35421 assessed as zone of inhibition at 5 mg/ml by agar well diffusion method; type: functional; conditions: read-out: DIZ
HeLa [12] = experiment: Cytotoxicity against human HeLa cells assessed as cell growth at 10^-4 M after 48 hrs by SRB assay relative to control; type: functional; conditions: read-out: Activity
Escherichia coli [13] = experiment: Antibacterial activity against Escherichia coli ATCC 20732 after 24 to 48 hrs by macro-broth dilution method; type: functional
HeLa [14] = experiment: Growth inhibition of human HeLa cells after 48 hrs by SRB assay; type: functional
Escherichia coli [15] = experiment: Antibacterial activity against Escherichia coli ATCC 35421 assessed as zone of inhibition at 1 mg/ml by agar well diffusion method; type: functional; conditions: read-out: DIZ
Candida albicans [16] = experiment: Antifungal activity against Candida albicans A01 after 24 to 48 hrs by macro-broth dilution method; type: functional
Escherichia coli [17] = experiment: Antibacterial activity against Escherichia coli ATCC 35421 after 24 to 48 hrs by macro-broth dilution method; type: functional
HeLa [18] = experiment: Cytotoxicity against human HeLa cells assessed as reduction in cell viability after 48 hrs by SRB assay; type: functional, cell-based
Pseudomonas aeruginosa = experiment: Antibacterial activity against Pseudomonas aeruginosa M5 after 24 to 48 hrs by macro-broth dilution method; type: functional
HeLa [19] = experiment: Cytotoxicity against human HeLa cells assessed as cell growth at 10^-5 M after 48 hrs by SRB assay relative to control; type: functional; conditions: read-out: Activity
Candida albicans [20] = experiment: Antifungal activity against Candida albicans ATCC 10231 after 24 to 48 hrs by macro-broth dilution method; type: functional
Pichia kudriavzevii [21] = experiment: Antifungal activity against Candida krusei G06 after 24 to 48 hrs by macro-broth dilution method; type: functional
Candida albicans [22] = experiment: Antifungal activity against Candida albicans A01 assessed as zone of inhibition at 5 mg/ml by agar well diffusion method; type: functional; conditions: read-out: DIZ
[23] = test system: Staphylococcus epidermidis; experiment: Antibacterial activity against Staphylococcus epidermidis 209E after 24 to 48 hrs by macro-broth dilution method; type: functional
Pichia kudriavzevii [24] = experiment: Antifungal activity against Candida krusei G03 after 24 to 48 hrs by macro-broth dilution method; type: functional

Structure (SMILES) | zone of inhibition at 1000 µg/mL (Staphylococcus aureus [2]) [mm] | MIC (Nakaseomyces glabratus [4]) [µg/mL] | zone of inhibition at 1000 µg/mL (Candida albicans [5]) [mm] | growth at 1 µM (HeLa [6]) [%] | MIC (Nakaseomyces glabratus [8]) [µg/mL] | growth at 0.1 µM (HeLa [9]) [%] | zone of inhibition at 5000 µg/mL (Staphylococcus aureus [10]) [mm] | zone of inhibition at 5000 µg/mL (Escherichia coli [11]) [mm] | growth at 100 µM (HeLa [12]) [%] | GI50 (HeLa [14]) [µM] | LC50 (HeLa [14]) [µM] | TGI (HeLa [14]) [µM] | growth inhibition (GI) (HeLa [14]) | zone of inhibition at 1000 µg/mL (Escherichia coli [15]) [mm] | MIC (Candida albicans [16]) [µg/mL] | Activity (HeLa [18]) | growth at 10 µM (HeLa [19]) [%] | MIC (Candida albicans [20]) [µg/mL] | MIC (Pichia kudriavzevii [21]) [µg/mL] | zone of inhibition at 5000 µg/mL (Candida albicans [22]) [mm] | other results
CS(=O)(=O)c1nc2cc(OCc3ccc(Cl)cc3)ccc2s1 | 13 | 50 (≈ 141 µM) | 9 | 89.9 | 50 (≈ 141 µM) | 100 | 22 | 10 | -50.5 | 33 | > 100 | 73.3 | Dose-dependent effect | 9 | 20 (≈ 56.5 µM) | Dose-dependent effect | 60.8 | 20 (≈ 56.5 µM) | 20 (≈ 56.5 µM) | 16 | MIC (Staphylococcus aureus [1]): 100 µg/mL (≈ 283 µM); MIC (Staphylococcus aureus [3]): 100 µg/mL (≈ 283 µM); MIC (Staphylococcus aureus [7]): 100 µg/mL (≈ 283 µM); MIC (Escherichia coli [13]): 20 µg/mL (≈ 56.5 µM); MIC (Escherichia coli [17]): 20 µg/mL (≈ 56.5 µM); MIC (Pseudomonas aeruginosa): 50 µg/mL (≈ 141 µM); MIC [23]: 100 µg/mL (≈ 283 µM); MIC (Pichia kudriavzevii [24]): 20 µg/mL (≈ 56.5 µM)
CCOc1ccc2sc(S(C)(=O)=O)nc2c1N | 17 | 10 (≈ 36.7 µM) | ≤ 7 | 93 | 10 (≈ 36.7 µM) | 99.5 | ≤ 7 | ≤ 7 | -31.9 | 34 | > 100 | 74.3 | Dose-dependent effect | ≤ 7 | 8 (≈ 29.4 µM) | Dose-dependent effect | 65.6 | 4 (≈ 14.7 µM) | 10 (≈ 36.7 µM) | 19 | MIC (Pichia kudriavzevii [24]): 10 µg/mL (≈ 36.7 µM)
OC(Cn1cncn1)(Cn1cncn1)c1ccc(F)cc1F [FLUCONAZOLE] | – | 2 (≈ 6.53 µM) | – | – | 2 (≈ 6.53 µM) | – | – | – | – | – | – | – | – | – | 4 (≈ 13.1 µM) | – | – | 4 (≈ 13.1 µM) | 2 (≈ 6.53 µM) | – | MIC (Pichia kudriavzevii [24]): 2 µg/mL (≈ 6.53 µM)
CCOc1ccc2sc(S(C)(=O)=O)nc2c1S(=O)(=O)Nc1ccc([N+](=O)[O-])cc1 | 14 | – | ≤ 7 | 46.2 | – | 98.3 | 16 | 10 | -67.8 | 0.22 | 81.5 | 40.8 | Dose-dependent effect | 9 | – | Dose-dependent effect | -12.3 | – | – | ≤ 7 | MIC (Staphylococcus aureus [1]): 10 µg/mL (≈ 21.9 µM); MIC (Staphylococcus aureus [3]): 10 µg/mL (≈ 21.9 µM); MIC (Staphylococcus aureus [7]): 10 µg/mL (≈ 21.9 µM); MIC (Escherichia coli [13]): 20 µg/mL (≈ 43.7 µM); MIC (Escherichia coli [17]): 20 µg/mL (≈ 43.7 µM); MIC (Pseudomonas aeruginosa): 50 µg/mL (≈ 109 µM); MIC [23]: 10 µg/mL (≈ 21.9 µM)
